Patent US20220296541A1, “N-PALMITOYL-ETHANOLAMIDE FOR USE IN THE PREVENTION OF COLORECTAL CARCINOMA” (priority 2021, published 2022)

Assays:
cyclin B1 = experiment: Gene expression of cyclin B1 by Real-Time PCR in HCT116 cells; assay type: cell-based, human; conditions: 30 μM for 24 h (FIG. 3B)
Protocol: (§1) For the in vitro experiments, immortalized human colon cancer (HCT116) and human colorectal adenocarcinoma cell lines (Caco-2) and immortalized healthy human colon epithelial cells (HCEC) were cultured in DMEM growth medium (Sigma Aldrich) supplemented with 10% serum bovine fetal (FBS, Sigma Aldrich) and kept at 37° C. in an incubator with a 5% CO2 atmosphere.
(§2) The expression of the CDK1 and CYCLIN B1 genes was evaluated by virtue of the quantitative Real-Time PCR method using specific primers.

[1] = tested on: healthy human colon epithelial cells HCEC; experiment: BrdU proliferation ELISA, healthy colon epithelial cells HCEC; assay type: cell-based; conditions: 24 h (FIG. 2C)
Protocol: as §1
(§3) To assess viability, the cells are stained with Trypan blue while cell proliferation, in the presence or absence of ultra-micronized PEA (1-30 μM), was determined using the BrdU proliferation ELISA kit (Roche, Milan, Italy).

[2] = tested on: cyclic-dependent kinase 1 (CDK1); experiment: Gene expression of CDK1 by Real-Time PCR in HCT116 cells; assay type: cell-based, human; conditions: 30 μM for 24 h (FIG. 3C)
Protocol: as §1, §2

HCT116 cells [3] = experiment: Cell cycle analysis by flow cytometry (BrdU/7-AAD) of HCT116 cells; assay type: cell-based, human; conditions: 30 μM for 24 h (FIG. 3A)
Protocol: as §1
The cell cycle analysis of HCT116 cells was performed following the protocol reported in the BD Pharmingen™ BrdU Flow Kit (BD Biosciences, USA). For the study, 1.5×10^5 cells was sown on 6-well plates and kept overnight in serum-free medium in the presence or absence of ultra-micronized PEA (30μM) for 24 h. The cells were detected with the BriCyte flow cytometer (Mindray, Italy) according to the BrdU (bromodeoxyuridine) and 7-AAD (7-aminoactinomycin D) content thereof. The data obtained were analyzed with FlowJo v10 software (tree Star, USA) to understand the distribution of HCT116 in the different cell cycle phases.

[4] = tested on: AOM-induced ACF, polyps and tumors; experiment: AOM mouse model of colon cancer; assay type: in vivo, male CD1 mice; conditions: 10 mg/kg per os three times a week for 13 weeks, starting the week before first AOM
Protocol: The in vivo study was conducted on six-week-old (25-30 g) male CD1 mice fed ad libitum and housed in cages with a controlled sleep/wake cycle. Before the start of the experimentation, the animals were subjected to an acclimatization period of 1 week considering all the experimental procedures and protocols, compliant with the principles of the care of laboratory animals approved by the Italian Ministry of Health and respecting the ARRIVE guidelines [Curtis M J et al. Experimental design and analysis and their reporting II: updated and simplified guidance for authors and peer reviewers. […] The animals were chemically treated with AOM (azoxymethane, 40 mg/kg in total) [Neufert C et al. An inducible mouse model of colon carcinogenesis for the analysis of sporadic and inflammation-driven tumor progression. […] A single dose of AOM was injected intraperitoneally at a concentration of 10 mg/kg at the beginning of the first, second, third and fourth weeks of the experiment [Pagano E et al. Pharmacological inhibition of MAGL attenuates experimental colon carcinogenesis, Pharmacol Res 2017; 119: 227-236]. […] The animals were euthanized 12 weeks after the first AOM injection and the colorectal area was collected. […] The detection and quantification of ACF, polyps and colorectal tumors was performed following the protocol of Pagano E et al. Pharmacological inhibition of MAGL attenuates experimental colon carcinogenesis, Pharmacol Res 2017; 119: 227-236.

HCT116 cells [5] = experiment: BrdU proliferation ELISA, HCT116 cells; assay type: cell-based, human; conditions: 1-30 μM, 24 hours of exposure (FIG. 2A)
Protocol: as §1, §3

Caco-2 cells = experiment: BrdU proliferation ELISA, Caco-2 cells; assay type: cell-based, human; conditions: 30 μM, 24 h (FIG. 2B)
Protocol: as §1, §3

CCCCCCCCCCCCCCCC(=O)NCCO [ultra-micronized PEA, palmitoylethanolamide]
expression of cyclin B1 (cyclin B1): increased expression
proliferation rate of the healthy epithelial cell line HCEC [1]: did not affect the proliferation rate
expression of CDK1 [2]: increased expression
cell cycle arrest in the G2/M phase (HCT116 cells [3]): blocking neoplastic cells in the G2/M phase
percentage of cells in the S phase (HCT116 cells [3]): significant reduction
number of pre-neoplastic ACF lesions ([4]; vs AOM alone (FIG. 4A)): significantly reduces
number of polyps ([4]; vs AOM alone (FIG. 4B)): strong tendency to also reduce
total number of tumors ([4]; vs AOM alone (FIG. 4C)): significantly reduces
proliferation rate of HCT116 cells (HCT116 cells [5]): reduces the proliferation rate
proliferation of non-metastatic Caco-2 cells (Caco-2 cells): significantly reducing the proliferation
